Our source for the EC50 values is US9663496B2, “AMPK-activating heterocyclic compounds and methods for using the same” (Rigel Pharmaceuticals, Inc., priority 2010, dated 2017).

The assay addresses AMPK. Description: AMPK activation, enzyme-linked immunosorbent assay. The conditions noted are these: EC50 for AMPK activation, ELISA. It is filed as biochemical. Put shortly: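 Read-out: immunodetected kinase activation after compound exposure, run with commercial kit reagents.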
For orientation: An ELISA detects its analyte on a solid surface through an enzyme-linked reagent.
As usually defined, the EC50 is the midpoint of the concentration-response curve. A low value points to greater potency. The compound `CC(=O)c1ccc(Oc2ccc(NC(=O)c3ccc(C(=O)N4CCN(Cc5ccc(F)cc5)CC4)nc3)cn2)cc1` [Compound 477, N-(6-(4-acetylphenoxy)pyridin-3-yl)-6-(4-(4-fluorobenzyl)piperazine-1-carbonyl)nicotinamide] came in with an EC50 of under 500 nM. In turn, `COc1ccc(C(=O)C2CCN(C(=O)c3ccc(C(=O)Nc4ccc(Oc5ccc(C#N)cc5)nc4C)cn3)CC2)cc1` [Compound 478, N-(6-(4-cyanophenoxy)-2-methylpyridin-3-yl)-6-(4-(4-methoxybenzoyl)piperidine-1-carbonyl)nicotinamide] had a concentration for a half-maximal effect (EC50) of under 500 nM.

`Cc1nc(Oc2ccc(C#N)cc2)ccc1NC(=O)c1ccc(C(=O)N2CCC(C(=O)c3ccc(F)cc3F)CC2)nc1` [Compound 479, N-(6-(4-cyanophenoxy)-2-methylpyridin-3-yl)-6-(4-(2,4-difluorobenzoyl)piperidine-1-carbonyl)nicotinamide] showed an EC50 of under 500 nM. `COc1ccc(C(=O)C2CCN(C(=O)c3ccc(C(=O)Nc4ccc(Oc5ccc(C(=O)N(C)C)cc5)nc4)cn3)CC2)cc1` [Compound 480, N-(6-(4-(dimethylcarbamoyl)phenoxy)pyridin-3-yl)-6-(4-(4-methoxybenzoyl)piperidine-1-carbonyl)nicotinamide] returned an EC50 of under 500 nM. As to `CN(C)C(=O)c1ccc(Oc2ccc(NC(=O)c3ccc(C(=O)N4CCC(C(=O)c5ccc(F)cc5F)CC4)nc3)cn2)cc1` [Compound 481, 6-(4-(2,4-difluorobenzoyl)piperidine-1-carbonyl)-N-(6-(4-(dimethylcarbamoyl)phenoxy)pyridin-3-yl)nicotinamide], the EC50 was under 500 nM. As to `COc1ccc(C(=O)C2CCN(C(=O)c3ccc(C(=O)N(C)C4CCN(Cc5ccc(C#N)cc5)CC4)cn3)CC2)cc1` [Compound 482, N-(1-(4-cyanobenzyl)piperidin-4-yl)-6-(4-(4-methoxybenzoyl)piperidine-1-carbonyl)-N-methylnicotinamide], the concentration giving a half-maximal response (EC50) was under 500 nM. Regarding `COc1ccc(C(=O)C2CCN(C(=O)c3ccc(C(=O)N(C)C4CCN(Cc5ccc(OC(F)(F)F)cc5)CC4)cn3)CC2)cc1` [Compound 483, 6-(4-(4-methoxybenzoyl)piperidine-1-carbonyl)-N-methyl-N-(1-(4-(trifluoromethoxy)benzyl)piperidin-4-yl)nicotinamide], the concentration giving a half-maximal response (EC50) is under 500 nM.

For `COc1ccc(CN2CCC(N(C)C(=O)c3ccc(C(=O)N4CCC(C(=O)c5ccc(OC)cc5)CC4)nc3)CC2)cc1` [Compound 484, 6-(4-(4-methoxybenzoyl)piperidine-1-carbonyl)-N-(1-(4-methoxybenzyl)piperidin-4-yl)-N-methylnicotinamide], the concentration giving a half-maximal response (EC50) was under 500 nM. In the case of `CC(=O)c1ccc(Oc2ccc(NC(=O)c3ccc(C(=O)N4CCC(Oc5ccc(S(C)(=O)=O)cc5)CC4)nc3)cn2)cc1` [Compound 485, N-(6-(4-acetylphenoxy)pyridin-3-yl)-6-(4-(4-(methylsulfonyl)phenoxy)piperidine-1-carbonyl)nicotinamide], the EC50 is under 500 nM. `CC(=O)c1ccc(Oc2ccc(NC(=O)c3ccc(C(=O)N4CCC(Oc5ccc(S(=O)(=O)C6CC6)cc5)CC4)nc3)cn2)cc1` [Compound 486, N-(6-(4-acetylphenoxy)pyridin-3-yl)-6-(4-(4-(cyclopropylsulfonyl)phenoxy)piperidine-1-carbonyl)nicotinamide]: the 50% effective concentration (EC50) was under 500 nM. For `CC(=O)c1ccc(Oc2ccc(NC(=O)c3ccc(C(=O)N4CCN(c5ccc(S(C)(=O)=O)cc5)CC4)nc3)cn2)cc1` [Compound 487, N-(6-(4-acetylphenoxy)pyridin-3-yl)-6-(4-(4-(methylsulfonyl)phenyl)piperazine-1-carbonyl)nicotinamide], the concentration for a half-maximal effect (EC50) fell in the range of 1000 to 5000 nM. As for `CC(=O)c1ccc(Oc2ccc(NC(=O)c3ccc(C(=O)N4CCC(Oc5ccc(C(=O)N(C)C)cc5)CC4)nc3)cn2)cc1` [Compound 488, N-(6-(4-acetylphenoxy)pyridin-3-yl)-6-(4-(4-(dimethylcarbamoyl)phenoxy)piperidine-1-carbonyl)nicotinamide], the figure is under 500 nM.

With `CC(=O)c1ccc(Oc2ccc(NC(=O)c3ccc(C(=O)N4CCN(c5ccc(S(=O)(=O)C(C)C)cc5)CC4)nc3)cn2)cc1` [Compound 489, N-(6-(4-acetylphenoxy)pyridin-3-yl)-6-(4-(4-(isopropylsulfonyl)phenyl)piperazine-1-carbonyl)nicotinamide], the EC50 was under 500 nM. `COc1ccc(C(=O)C2CCN(C(=O)c3ccc(C(=O)NC4CCN(Cc5ccc(C(=O)N(C)C)cc5)CC4)cn3)CC2)cc1` [Compound 490, N-(1-(4-(dimethylcarbamoyl)benzyl)piperidin-4-yl)-6-(4-(4-methoxybenzoyl)piperidine-1-carbonyl)nicotinamide] came in with a 50% effective concentration (EC50) of 1000 to 5000 nM. Regarding `N#Cc1ccc(CN2CCC(NC(=O)c3ccc(N4CCN(Cc5ccc(F)cc5)CC4)nn3)CC2)cc1` [Compound 491, N-(1-(4-cyanobenzyl)piperidin-4-yl)-6-(4-(4-fluorobenzyl)piperazin-1-yl)pyridazine-3-carboxamide], the half-maximal effective concentration (EC50) fell in the range of 1000 to 5000 nM.

With `N#Cc1ccc(CN2CCC(NC(=O)c3ccc(C(=O)N4CCC(Oc5ccc(S(F)(F)(F)(F)F)cc5)CC4)cn3)CC2)cc1` [Compound 492, N-(1-(4-cyanobenzyl)piperidin-4-yl)-5-(4-(4-(pentafluorosulfanyl)phenoxy)piperidine-1-carbonyl)picolinamide], the concentration for a half-maximal effect (EC50) was under 500 nM. In turn, `N#Cc1ccc(CN2CCC(NC(=O)c3ccc(C(=O)N4CCC(Oc5ccc(S(F)(F)(F)(F)F)cc5)CC4)nc3)CC2)cc1` [Compound 493, N-(1-(4-cyanobenzyl)piperidin-4-yl)-6-(4-(4-(pentafluorosulfanyl)phenoxy)piperidine-1-carbonyl)nicotinamide] registered an EC50 of under 500 nM. Consider `O=C(NC1CCN(Cc2ccc(OC(F)(F)F)cc2)CC1)c1ccc(C(=O)N2CCC(Oc3ccc(S(F)(F)(F)(F)F)cc3)CC2)nc1` [Compound 494, 6-(4-(4-(pentafluorosulfanyl)phenoxy)piperidine-1-carbonyl)-N-(1-(4-(trifluoromethoxy)benzyl)piperidin-4-yl)nicotinamide], for which the EC50 was under 500 nM.

The compound `COc1ccc(CN2CCC(NC(=O)c3ccc(C(=O)N4CCC(Oc5ccc(S(F)(F)(F)(F)F)cc5)CC4)nc3)CC2)cc1` [Compound 495, N-(1-(4-methoxybenzyl)piperidin-4-yl)-6-(4-(4-(pentafluorosulfanyl)phenoxy)piperidine-1-carbonyl)nicotinamide] gave an EC50 of under 500 nM. The compound `O=C(Nc1ccc(Oc2ccc(F)cc2)nc1)c1ccc(C(=O)N2CCC(Oc3ccc(S(F)(F)(F)(F)F)cc3)CC2)nc1` [Compound 496, N-(6-(4-fluorophenoxy)pyridin-3-yl)-6-(4-(4-(pentafluorosulfanyl)phenoxy)piperidine-1-carbonyl)nicotinamide] yielded an EC50 of under 500 nM. Turning to `N#Cc1ccc(Oc2ccc(NC(=O)c3ccc(C(=O)N4CCC(Oc5ccc(S(F)(F)(F)(F)F)cc5)CC4)nc3)cn2)cc1` [Compound 497, N-(6-(4-cyanophenoxy)pyridin-3-yl)-6-(4-(4-(pentafluorosulfanyl)phenoxy)piperidine-1-carbonyl)nicotinamide], the EC50 is under 500 nM.

In the case of `COc1ccc(C(=O)C2CCN(C(=O)c3ccc(C(=O)NC4CCN(Cc5ccc(C#N)cc5)CC4(F)F)cn3)CC2)cc1` (stereo not shown) [Compound 498, N-(1-(4-cyanobenzyl)-3,3-difluoropiperidin-4-yl)-6-(4-(4-methoxybenzoyl)piperidine-1-carbonyl)nicotinamide], the EC50 was under 500 nM.
